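The compound was tested at five concentrations on cells cultured in 96-well plates, with a 48-hour exposure period. GI50: concentration for 50% inhibition of growth. TGI: total growth inhibition.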
Legend:
Test in all cases: growth of human tumour cells (NCI), 48 h
MDA-MB-435 = tested on: MDA-MB-435
NCI/ADR-RES ovarian = tested on: NCI/ADR-RES ovarian
MCF7 breast = tested on: MCF7 breast
MDA-MB-231 breast = tested on: MDA-MB-231 breast
SW-620 colon = tested on: SW-620 colon
EKVX NSCLC = tested on: EKVX NSCLC
CCRF-CEM leukemia = tested on: CCRF-CEM leukemia
OVCAR-4 ovarian = tested on: OVCAR-4 ovarian
786-0 renal = tested on: 786-0 renal
SK-MEL-28 melanoma = tested on: SK-MEL-28 melanoma
DU-145 prostate = tested on: DU-145 prostate
A498 renal = tested on: A498 renal
MDA-N = tested on: MDA-N
SF-268 CNS = tested on: SF-268 CNS

SMILES	TGI (MDA-MB-435)	TGI (NCI/ADR-RES ovarian)	TGI (MCF7 breast)	TGI (MDA-MB-231 breast)	TGI (SW-620 colon)	TGI (EKVX NSCLC)	TGI (CCRF-CEM leukemia)	GI50 (OVCAR-4 ovarian)	TGI (OVCAR-4 ovarian)	TGI (786-0 renal)	TGI (SK-MEL-28 melanoma)	TGI (DU-145 prostate)	TGI (A498 renal)	TGI (MDA-N)	TGI (SF-268 CNS)
CC(=O)Nc1ccc2[nH]c(-c3cccc(Cl)c3)cc(=O)c2c1	6.93 µM	> 100 µM	> 100 µM	> 100 µM	> 100 µM	> 100 µM	> 100 µM	> 100 µM	> 100 µM	> 100 µM	> 100 µM	–	–	–	–
N#C/C(C(=O)Nc1ccc(Cl)cc1)=C(/N)N1CCCCC1	> 100 µM	> 100 µM	> 100 µM	–	> 100 µM	> 100 µM	> 100 µM	–	–	> 100 µM	> 100 µM	> 100 µM	> 100 µM	> 100 µM	–
CC(=O)CSc1c(-c2ccccc2)c(=O)n(-c2ccccc2)c(=S)n1-c1ccccc1	> 100 µM	> 100 µM	> 100 µM	–	> 100 µM	> 100 µM	> 100 µM	–	> 100 µM	> 100 µM	> 100 µM	> 100 µM	–	> 100 µM	> 100 µM
CC(=O)NC1=C(NCCN(C)C)C(=O)c2ccccc2C1=O	–	–	–	–	> 50 µM	> 50 µM	> 50 µM	–	17.7 µM	> 50 µM	> 50 µM	–	–	–	> 50 µM
Cc1nc(N/N=C/c2ccccc2Cl)[nH]c(=O)c1CCO	> 100 µM	> 100 µM	> 100 µM	> 100 µM	> 100 µM	> 100 µM	> 100 µM	–	> 100 µM	> 100 µM	> 100 µM	> 100 µM	–	> 100 µM	> 100 µM
Oc1ccc(N=C2CCC(=C(c3ccccc3)c3ccc(Nc4ccc(O)cc4)cc3)CC2)cc1	> 100 µM	> 100 µM	> 100 µM	> 100 µM	> 100 µM	–	> 100 µM	–	> 100 µM	> 100 µM	> 100 µM	> 100 µM	> 100 µM	–	> 100 µM
CC(C)=NNC=N/C(C#N)=C(\N)C#N	–	> 100 µM	> 100 µM	–	> 100 µM	> 100 µM	> 100 µM	–	> 100 µM	> 100 µM	> 100 µM	> 100 µM	–	–	> 100 µM
CC(NC(=O)c1ccccc1)NC(=O)C(C)C(=O)Nc1ccccc1 (stereo not drawn)	> 100 µM	> 100 µM	> 100 µM	> 100 µM	> 100 µM	> 100 µM	> 100 µM	–	> 100 µM	> 100 µM	–	> 100 µM	–	> 100 µM	> 100 µM
O=c1oc2ccccc2c(O)c1/C=N/C(=S)NCCc1ccccc1	> 75.3 µM	> 100 µM	> 100 µM	> 100 µM	> 100 µM	> 100 µM	86.1 µM	–	> 100 µM	> 100 µM	> 100 µM	> 100 µM	–	> 100 µM	> 100 µM
COC1=CCC=C(C[C@@H]2NCCc3cc(OC)c(OC)cc32)C1	–	–	–	–	> 100 µM	> 100 µM	> 100 µM	–	> 100 µM	> 100 µM	> 100 µM	–	> 100 µM	–	> 100 µM
CCc1c(Cc2[nH]c(Cc3[nH]c(C=O)c(C)c3CC)c(CC)c2CC)[nH]c(C=O)c1C	–	–	–	–	> 100 µM	> 100 µM	> 100 µM	–	> 1 µM	> 100 µM	> 100 µM	–	–	–	> 100 µM
CCN(CC)CCNC(=O)c1cc2cc(NC(=O)c3cc4cc(NC(=O)c5cc6cc(N)ccc6[nH]5)ccc4[nH]3)ccc2[nH]1	> 100 µM	> 100 µM	–	> 100 µM	> 100 µM	> 100 µM	> 100 µM	–	> 100 µM	> 100 µM	> 100 µM	> 100 µM	> 100 µM	> 100 µM	> 100 µM
O=C(N=Nc1cccc(Cl)c1)NNc1cccc(Cl)c1	26.5 µM	–	–	74.6 µM	35.5 µM	–	48.5 µM	–	52.6 µM	28.4 µM	41 µM	41.8 µM	44.9 µM	31.2 µM	73.6 µM
Cc1cc(S(=O)(=O)Nc2cc(N)[nH]n2)c(SCc2nc(N)nc(N(C)C)n2)cc1Cl	–	> 10 µM	> 10 µM	–	> 10 µM	> 10 µM	> 10 µM	–	> 10 µM	> 10 µM	> 10 µM	> 10 µM	> 10 µM	> 10 µM	> 10 µM
CC(=O)O[C@H]1/C(=C/c2ccncc2)C[C@H]2[C@@H]3CC=C4C[C@@H](N5CCCC5)CC[C@]4(C)[C@H]3CC[C@]12C	25.8 µM	25.1 µM	25.8 µM	35 µM	31.9 µM	29 µM	38.5 µM	–	37.7 µM	10.3 µM	26 µM	28 µM	30.9 µM	–	30.2 µM
COC(=O)[C@@H]1CN(C(C)=O)C(=O)N1C(=O)OCc1ccccc1	> 100 µM	> 100 µM	–	> 100 µM	> 100 µM	> 100 µM	> 100 µM	–	> 100 µM	> 100 µM	> 100 µM	> 100 µM	> 100 µM	> 100 µM	> 100 µM
NCCN1C(=O)CN=C(c2ccc(Cl)cc2)c2cc(Cl)ccc21	28.3 µM	32.8 µM	–	30.5 µM	43 µM	84.5 µM	64.2 µM	–	32.1 µM	30.4 µM	> 100 µM	34.8 µM	33.8 µM	31.4 µM	30.4 µM
O=C(O)c1ccc(NC(NC(=O)C(C(F)(F)F)C(F)(F)F)(C(F)(F)F)C(F)(F)F)cc1	> 100 µM	> 100 µM	–	–	> 100 µM	> 100 µM	> 100 µM	–	–	> 100 µM	> 100 µM	–	> 100 µM	> 100 µM	> 100 µM
CC(C)(C)OC(=O)NCCc1cccc2c1oc1c(CCC(=O)O)cccc12	–	–	–	–	> 100 µM	–	> 100 µM	–	> 100 µM	> 100 µM	> 100 µM	–	> 100 µM	–	> 100 µM

From PubChem BioAssay (NCI)
